# Measurements from the supplement of paper PMC10331698.
# ± gives the standard deviation of the averaged measurements.
# What was measured:
# Experiment in all cases: level (log10 ratio to DMSO vehicle control); higher = higher biomarker level / cell amount than vehicle control
# Details in all cases: in DMSO
# Perfluorooctanamide = compound: NC(=O)C(F)(F)C(F)(F)C(F)(F)C(F)(F)C(F)(F)C(F)(F)C(F)(F)F [Perfluorooctanamide]
# Experimental: (§1)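 BioMAP Diversity Plus panel of 12 human primary cell co-culture systems (3C, 4H, LPS, SAg, BT, BF4T, BE3C, CASM3C, HDF3CGF, KF3CT, MyoF, Mphg). Compounds were added 1 h before stimulation and left for 24 h (MyoF 48 h; BT 72 h for soluble read-outs or 6 d for IgG). Biomarkers were read by ELISA, cytotoxicity by SRB, PBMC viability and proliferation by Alamar Blue. Each well value was divided by the mean of 8 DMSO control wells on the same plate and log10 transformed; duplicate blinded samples were tested at 4 concentrations.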
# [1] = compound: O=S(=O)(O)C(F)(F)C(F)(F)C(F)(F)C(F)(F)F [Perfluorobutanesulfonic acid]
# Experimental: as §1
# 1H,1H-Heptafluorobutanol = compound: OCC(F)(F)C(F)(F)C(F)(F)F [1H,1H-Heptafluorobutanol]
# Experimental: as §1
# [2] = compound: C=CC(=O)OCCC(F)(F)C(F)(F)C(F)(F)C(F)(F)F [2-(Perfluorobutyl)ethyl acrylate]
# Experimental: as §1
# [3] = compound: C=C(C)C(=O)OCC(F)(F)C(F)(F)C(F)(F)C(F)(F)C(F)(F)C(F)(F)C(F)(F)F
# Experimental: as §1
# [4] = compound: O=S(=O)(O)C(F)(F)C(F)(F)C(F)(F)C(F)(F)C(F)(F)C(F)(F)C(F)(F)C(F)(F)F [Perfluorooctanesulfonic acid]
# Experimental: as §1
Test System,level (log10) (Perfluorooctanamide; 6700 nM),level (log10) (Perfluorooctanamide; 20000 nM),level (log10) (Perfluorooctanamide; 60000 nM),level (log10) ([1]; 6700 nM),level (log10) ([1]; 20000 nM),level (log10) ([1]; 60000 nM),"level (log10) (1H,1H-Heptafluorobutanol; 6700 nM)","level (log10) (1H,1H-Heptafluorobutanol; 20000 nM)","level (log10) (1H,1H-Heptafluorobutanol; 60000 nM)",level (log10) ([2]; 6700 nM),level (log10) ([2]; 20000 nM),level (log10) ([2]; 60000 nM),level (log10) ([3]; 6700 nM),level (log10) ([3]; 20000 nM),level (log10) ([4]; 6700 nM),level (log10) ([4]; 20000 nM),level (log10) ([4]; 60000 nM)
KF3CT:CXCL8/IL-8,-0.005 ± 0.0014,-0.027 ± 0.018,-0.062 ± 0.0057,-0.031 ± 0.02,-0.002 ± 0.0042,0.004 ± 0.0071,-0.02 ± 0.0014,-0.021 ± 0.0028,-0.0025 ± 0.016,-0.0095 ± 0.021,-0.003 ± 0.0014,-0.0105 ± 0.018,-0.0025 ± 0.019,0.009 ± 0.033,-0.005 ± 0.0085,-0.0135 ± 0.035,-0.012 ± 0.035
3C:CCL2/MCP-1,0.0085 ± 0.028,-0.01 ± 0.0014,0.0105 ± 0.054,0.0025 ± 0.05,0.0015 ± 0.021,0.0355 ± 0.043,-0.001,-0.0055 ± 0.012,0.007 ± 0.028,-0.0105 ± 0.021,-0.0305 ± 0.0035,-0.0245 ± 0.029,-0.013 ± 0.0042,0.018 ± 0.025,0.0115 ± 0.0035,-0.012 ± 0.0028,-0.0065 ± 0.013
KF3CT:CCL2/MCP-1,-0.011 ± 0.017,-0.034 ± 0.031,-0.091 ± 0.0028,-0.032 ± 0.017,-0.0095 ± 0.026,0.0135 ± 0.083,0.0035 ± 0.005,0.006 ± 0.0042,0.0235 ± 0.015,-0.036 ± 0.0099,-0.0515 ± 0.0035,-0.028 ± 0.086,-0.016 ± 0.025,0.0325 ± 0.03,-0.044 ± 0.017,-0.0205 ± 0.0078,0.0005 ± 0.00071
CASM3C:IL-6,0.0435 ± 0.036,-0.0225 ± 0.015,0.008 ± 0.023,-0.032 ± 0.028,-0.0375 ± 0.0021,-0.015 ± 0.0057,0 ± 0.033,-0.0125 ± 0.011,0.018 ± 0.042,-0.023 ± 0.0014,-0.0425 ± 0.0021,-0.076 ± 0.034,-0.0235 ± 0.0092,0.015 ± 0.013,-0.0375 ± 0.0078,-0.0465 ± 0.005,-0.061 ± 0.099
3C:CD141/Thrombomodulin,-0.006 ± 0.02,-0.0115 ± 0.022,-0.0185 ± 0.039,-0.0185 ± 0.049,-0.019 ± 0.0085,-0.054 ± 0.0085,-0.0025 ± 0.018,-0.005 ± 0.0042,0.0195 ± 0.005,-0.059 ± 0.027,-0.0955 ± 0.025,-0.142 ± 0.027,-0.038 ± 0.0057,-0.0015 ± 0.032,-0.0015 ± 0.012,-0.0025 ± 0.011,0.0455 ± 0.022
KF3CT:CXCL9/MIG,0.0035 ± 0.039,0.0105 ± 0.016,0.018 ± 0.0042,0.0185 ± 0.029,0.021 ± 0.017,0.0345 ± 0.0078,-0.0015 ± 0.0021,0.002 ± 0.0028,0.0055 ± 0.005,-0.0035 ± 0.0021,0.008 ± 0.0042,-0.0235 ± 0.015,0.007 ± 0.0028,0.006 ± 0.0028,-0.007 ± 0.0042,0.0025 ± 0.0035,0.0075 ± 0.012
CASM3C:CD141/Thrombomodulin,-0.0225 ± 0.021,0.0155 ± 0.0021,0.015 ± 0.0071,0.01 ± 0.028,-0.0095 ± 0.016,0.0075 ± 0.016,-0.01 ± 0.013,-0.0065 ± 0.0021,-0.0145 ± 0.005,0.006 ± 0.018,-0.0125 ± 0.0064,0.052 ± 0.0014,0.002 ± 0.048,-0.0265 ± 0.035,-0.007 ± 0.0085,-0.0115 ± 0.0078,-0.017 ± 0.031
lMphg:CD106/VCAM-1,-0.021 ± 0.0071,0.006 ± 0.0071,0.0435 ± 0.012,-0.004 ± 0.025,-0.013 ± 0.018,-0.0195 ± 0.0078,-0.001,0.008 ± 0.0028,0.01 ± 0.0085,-0.009 ± 0.0099,-0.0035 ± 0.028,-0.0405 ± 0.037,-0.0385 ± 0.0035,-0.0535 ± 0.026,-0.009 ± 0.0099,-0.005 ± 0.013,-0.058 ± 0.04
HDF3CGF:CCL2/MCP-1,-0.023 ± 0.0057,-0.0145 ± 0.022,-0.033 ± 0.0014,-0.0075 ± 0.037,0.0005 ± 0.025,-0.023 ± 0.03,0.001 ± 0.014,0.0225 ± 0.021,-0.009 ± 0.03,-0.032 ± 0.0085,-0.059 ± 0.025,-0.117 ± 0.054,-0.0205 ± 0.03,-0.007 ± 0.0042,-0.005 ± 0.0042,-0.013 ± 0.0071,0.01 ± 0.033
MyoF:SRB,-0.006 ± 0.0042,0.0045 ± 0.012,-0.0055 ± 0.011,-0.002 ± 0.0071,-0.0035 ± 0.00071,0.0085 ± 0.00071,0.0015 ± 0.00071,-0.004 ± 0.0028,-0.004 ± 0.0057,-0.001 ± 0.0099,-0.004 ± 0.011,-0.0085 ± 0.00071,-0.0005 ± 0.0021,-0.0065 ± 0.0064,-0.0045 ± 0.00071,-0.0155 ± 0.00071,-0.0185 ± 0.019
HDF3CGF:TIMP-1,-0.0405 ± 0.049,-0.022 ± 0.02,-0.0575 ± 0.0035,-0.032 ± 0.064,0.0125 ± 0.0078,0.0195 ± 0.011,-0.021 ± 0.017,-0.028 ± 0.0099,-0.048 ± 0.11,-0.0375 ± 0.033,-0.0285 ± 0.0064,-0.053 ± 0.03,0.041 ± 0.038,0.036 ± 0.03,-0.0015 ± 0.021,0.0165 ± 0.026,0.0895 ± 0.061
CASM3C:Serum Amyloid A,-0.034 ± 0.044,-0.0465 ± 0.069,-0.062 ± 0.051,-0.0575 ± 0.08,-0.0795 ± 0.071,-0.068 ± 0.055,-0.029 ± 0.04,0.012 ± 0.035,0.018 ± 0.021,-0.007,-0.0175 ± 0.016,-0.0305 ± 0.08,-0.014 ± 0.0028,-0.009 ± 0.0042,0.0035 ± 0.0021,-0.017 ± 0.0014,-0.005 ± 0.04
MyoF:MMP-1,-0.0075 ± 0.011,-0.013 ± 0.04,-0.0045 ± 0.026,0.0385 ± 0.005,0.065 ± 0.0071,0.0885 ± 0.0035,-0.031 ± 0.0057,-0.019 ± 0.011,0.012 ± 0.081,0.0005 ± 0.0092,0.024 ± 0.017,0.0405 ± 0.012,-0.0245 ± 0.0092,0.0025 ± 0.086,-0.031 ± 0.0014,-0.031 ± 0.013,0.038 ± 0.048
HDF3CGF:Collagen III,-0.018 ± 0.014,-0.02 ± 0.0014,-0.0085 ± 0.056,-0.013 ± 0.048,0.035 ± 0.016,0.047 ± 0.016,-0.0055 ± 0.076,-0.0285 ± 0.052,-0.0155 ± 0.044,-0.005 ± 0.0014,-0.0605 ± 0.0021,-0.127 ± 0.03,-0.004 ± 0.0042,-0.0005 ± 0.0078,-0.024 ± 0.031,-0.0155 ± 0.015,-0.0585 ± 0.013
3C:CD106/VCAM-1,-0.023 ± 0.0028,-0.005 ± 0.0099,-0.004 ± 0.0057,-0.0215 ± 0.015,-0.016 ± 0.025,-0.006 ± 0.013,0.008 ± 0.033,0.018 ± 0.025,0.001 ± 0.037,-0.0335 ± 0.005,-0.0715 ± 0.039,-0.14 ± 0.04,-0.0145 ± 0.005,-0.0025 ± 0.018,0.0005 ± 0.026,0.0045 ± 0.035,0.0295 ± 0.015
CASM3C:LDLR,-0.0175 ± 0.0035,0.0135 ± 0.026,0.031 ± 0.027,-0.0305 ± 0.0035,-0.0255 ± 0.025,-0.0345 ± 0.053,-0.0025 ± 0.0035,0.012 ± 0.011,0.006 ± 0.03,-0.013 ± 0.0099,-0.0105 ± 0.0021,0.01 ± 0.042,-0.0135 ± 0.0021,0.03 ± 0.024,-0.002 ± 0.0085,-0.007 ± 0.0014,-0.0165 ± 0.032
